The text below walks through data of patent publication US20240226107A1, “UBIQUITIN-SPECIFIC PROTEASE 1 (USP1) INHIBITOR” (SIMCERE ZAIMING PHARMACEUTICAL CO., LTD., priority 2021, published 2024).

For orientation: clearance means a measure of how efficiently the substance is removed, as volume per time. The term bioavailability denotes the share of a dose that reaches the circulation, judged against a reference dose that is usually intravenous. Usually Papp A→B stands for how fast a substance crosses the layer from the apical side. Usually Papp B→A stands for the apparent permeability from the basolateral to the apical side of a cell layer. A word on the IC50: it is the concentration needed to halve the response being measured. As a reminder, the GI50 is the concentration giving 50% growth inhibition. Low readings indicate greater sensitivity of the cells, high ones lower sensitivity of the cells.

The target in one data set is PXR (Homo sapiens (Human), UniProt O75469). The experiment in a line: Potential for PXR activation in DPX2 cells. It is filed as cell-based. Particulars: versus 20 μM rifampicin. As for the experimental part:
DMSO solutions of the compounds to be tested and the control compound rifampicin solution were prepared, and diluted with Puracyp dosing medium (Puracyp, Cat. No: D-500-100) at 37° C. to respective test concentrations. The final concentrations of the compounds to be tested were 30 μM, 10 μM, and 1 μM, respectively, and the final concentration of rifampicin was 20 μM. The final concentration of DMSO in the test solution was 0.1%. In addition, 0.1% DMSO solution prepared with Puracyp dosing medium was used as a control.
DPX2 cells were suspended in Puracyp Culture medium (Puracyp, Cat No.: C-500-100) at a cell density of 4.5×10^5 cell/mL. Then, the suspension was placed on a 96-well culture plate at 100 μL/well for incubation at 37° C. for 24 h. The medium in appropriate wells of the 96-well culture plate was replaced (three times per well) by 100 μL of solution of the compounds to be tested and a control compound solution. After replacement, the plate was incubated at 37° C. for 24 h. The medium was then replaced (three times per well) by a newly prepared test solution of the compounds to be tested and a rifampicin test solution, and the plate was incubated at 37° C. for 24 h.
The medium in the 96-well culture plate was pipetted and washed twice with PBS. To each well, 50 μL of reagent diluted as required by CellTiter-Fluor™ Cell Viability Assay Kit (Promega, Cat. No.: G6082) was added, and incubated at 37° C. for 0.5 h. The 96-well plate was cooled to room temperature, and the fluorescence value of each well at 505 nm was measured in a fluorescence mode with a microplate reader at an excitation wavelength of 400 nm. Then, 50 μL of reagent prepared as required by One-Glo Luciferase Assay System (Promega, Cat. No.: E6120) was added to each well, and the mixture was incubated at room temperature for 5 min. The luminescence value of each well was read by using a lumen meter.
Normalized luciferase activity was determined by RLU/RFU, and the RLU and RFU of the samples were mean values of duplicate wells, respectively.
[formula] • Fold of activation: fold of activation of normalized luciferase; • RLUtest: measured luminescence value of test wells at each test dose of test compounds; • RLUvehicle: measured luminescence value of test wells when tested with the control DMSO solution; • RFUtest: measured fluorescence value of test wells at each test dose of test compounds; • RFUvehicle: measured fluorescence value of test wells when tested with the control DMSO solution.
The percentage of positive control was calculated as follows:
% Positive control=(fold activationtest compound−1)/(fold activationpositive control compound−1)×100% • % Positive control: percentage of PXR activation compared with 20 μM rifampicin activation at each test dose of test compounds; • Fold activationtest compound: fold of activation of normalized luciferase at each test dose of test compounds; • Fold activationpositive control compound: fold of activation of normalized luciferase of test compounds under 20 μM rifampicin.

Data set [1] is described as follows: In vivo pharmacokinetics in SD rats. The note with it: male, rat, plasma. As for the experimental part:
Using SD rats as test animals, drug concentrations in plasma of the rats at different times after intravenous injection and intragastric administration of the compounds provided in the present application were determined by LC/MS/MS. In vivo pharmacokinetic behaviors of the compounds provided in the present application in rats were investigated to evaluate pharmacokinetic characteristics of the compounds.
There were three healthy 6-8-week-old male SD rats in each group.
Intravenous administration: A certain amount of drug was weighed, and then 10 vol % N,N-dimethylacetamide, 33 vol % triethylene glycol, and 57 vol % physiological saline were added to prepare 1 mg/mL colorless clear and transparent liquid;
Intragastric administration: A certain amount of drug was weighed, and then 0.5 wt % hydroxypropyl methylcellulose, 0.1 vol % tween 80, and 99.6 vol % physiological saline were added to prepare 1 mg/mL white suspension.
After fasting overnight, the SD rats were dosed intravenously or intragastrically.
The compounds provided in the present application were administered intravenously to the rats, then 0.2 mL of blood was collected from jugular veins respectively at 0.083, 0.25, 0.5, 1, 2, 4, 8, and 24 h after the administration, and placed in a test tube containing EDTA-K2. The test tube was then centrifuged at 4000 rpm at 4° C. for 5 min to separate plasma, and the plasma was stored at −75° C. Alternatively, the compounds provided in the present application were administered intragastrically to the rats, then 0.2 mL of blood was collected from jugular veins respectively at 0.25, 0.5, 1, 2, 4, 8, and 24 h after the administration, and placed in a test tube containing EDTA-K2. The test tube was then centrifuged at 3500 rpm at 4° C. for 10 min to separate plasma, and the plasma was stored at −75° C.
The content of the compounds to be tested in rat plasma after intravenous administration or intragastric administration at different concentrations was determined: 30 μL of rat plasma at each time after administration was taken, 200 μL (50 ng/mL) of solution of internal standard dexamethasone in acetonitrile was added, then the resulting mixture was vortex-mixed for 30 s, and centrifuged at 4700 rpm at 4° C. for 15 min, the supernatant of plasma samples was diluted three times with water, and 2.0 μL of diluted solution was taken for LC-MS/MS.

A short description of data set [2]: Metabolic stability in vitro in rat hepatocytes. Type of data set: in vitro ADME. The note with it: read-out: Intrinsic clearance. Here is the method:
The concentration of each compound in the reaction system was measured by LC/MS/MS to calculate the intrinsic clearance of the compounds to be tested, and evaluate the metabolic stability in vitro in rat hepatocytes.
To the incubation plate, 198 μL of 0.5×10^6 cells/mL rat hepatocyte mixture and 2.0 μL of 100 μM compound to be tested or positive control were added to initiate reaction. Incubation was performed at 900 rpm at 37° C. […] Then the mixture was vortex-mixed for 5 min. […] Then 100 μL of supernatant of each compound was transferred to a 96-well sample plate, and 100 μL of purified water was added to dilute the sample. The resulting samples were quantified by ion chromatograms. The residual rate was calculated from peak areas of the compounds to be tested or the positive control. The slope k was determined using Microsoft Excel by linear regression of natural logarithm of the residual rate to the incubation time. The intrinsic clearance (in vitro CLint, μL/min/10^6 cells) was calculated from the slope value according to the following equation: […]

A short description of data set [3]: Caco-2 permeability assay. It is filed as in vitro ADME. The note with it: human, pH 7.4, Caco-2, 5 μM, 2 h. In general terms: Caco-2 monolayers are a common model of the intestinal barrier.
Experimental: The apparent permeability coefficient (Papp) of the analytical drug was determined by liquid chromatography-mass spectrometry (LC-MS/MS) through a Caco-2 cell model.
In this test example, Caco-2 cells were purchased from American Type Culture Collection (ATCC); 4-hydroxyethyl piperazine ethane sulfonic acid (HEPES) was purchased from Beijing Solarbio Science & Technology Co., Ltd.; Hanks' balanced salt solution (HBSS) and non-essential amino acids (NEAA) were purchased from ThermoFisher Scientific; penicillin, streptomycin, and trypsin/EDTA were purchased from Solarbio; fetal bovine serum (FBS) and DMEM medium were purchased from Corning; HTS-96-well Transwell plates and other sterile consumables were purchased from Corning; Millicell resistance measuring system was purchased from Millipore; Cellometer®K2 was purchased from Nexcelom Bioscience; Infinite 200 PRO microplate reader was purchased from Tecan; and MTS2/4 orbital shaker was purchased from IKA Labortechnik.
Caco-2 cells were cultured in a culture flask. […] Cells at a confluency of 70-90% can be used to inoculate the Transwell. Prior to cell inoculation, 50 μL of cell culture medium was added to each well of the upper Transwell chamber and 25 mL of cell culture medium was added to the lower plate. The plate was incubated in an incubator (37° C., 5% CO2) for 1 h, and then inoculated with cells. After cell digestion, the cell suspension was pipetted and transferred to a round bottom centrifuge tube for centrifugation at 120 g for 5 min. […] The medium was changed as follows: transwell chambers were separated from the receiver plate, medium in the receiver plate was discarded, then medium in the Transwell chambers was discarded, and finally, 75 μL of fresh medium was added to each chamber, and 25 mL of fresh medium was added to the receiver plate.
After approximately 14 days of culture, the Caco-2 cells reached the confluency and completed differentiation. In this case, the cells can be applied to permeability assay. The monolayer resistance was measured with a resistance meter (Millipore, USA) and the resistance per well was recorded. After the measurement, the Transwell plate was put back to the incubator. Calculation of resistance: measured resistance value (ohms)×membrane area (cm^2)=TEER value (ohm·cm^2); if TEER value <230 ohms·cm^2, the well can not be used for permeability assay.
In 900 mL of purified water, 2.38 g HEPES and 0.35 g sodium bicarbonate were dissolved, then 100 mL of 10×HBSS was added and stirred well, pH was adjusted to 7.4, and finally, the resulting solution was filtered to obtain 1 L of transport buffer (HBSS, 10 mM HEPES, pH 7.4).
A DMSO stock solution of 1 mM of compound to be tested was diluted with the transport buffer to obtain 5 μM test solution. The control compound digoxin or minoxidil was diluted with DMSO to 2 mM, and diluted with the transport buffer described above to 10 μM to obtain a control compound test solution. In addition, DMSO was also diluted with the transport buffer described above to a receiving end solution containing 0.5% DMSO.
The Transwell plate was removed from the incubator. Monolayer cell membranes were rinsed twice with the transport buffer (10 mM HEPES, pH 7.4) and incubated at 37° C. for 30 min.
The transport rate of the compound from the apical side to the basolateral side was determined. […]
The transport rate of the compound from the basolateral side to the apical side was determined.
The nature of data set [4]: Metabolic stability in vitro in human hepatocytes. Type of data set: in vitro ADME. Particulars: read-out: Intrinsic clearance. As for the experimental part:
The concentration of each compound in the reaction system was measured by LC/MS/MS to calculate the intrinsic clearance of the compounds to be tested, and evaluate the metabolic stability in vitro in human hepatocytes.
To the incubation plate, 198 μL of 0.5×10^6 cells/mL human hepatocyte mixture and 2.0 μL of 100 μM compound to be tested or positive control were added to initiate reaction. Incubation was performed at 900 rpm at 37° C. […] Then the mixture was vortex-mixed for 5 min. […] Then 100 μL of supernatant of each compound was transferred to a 96-well sample plate, and 100 μL of purified water was added to dilute the sample.
The resulting samples were quantified by ion chromatograms. The residual rate was calculated from peak areas of the compounds to be tested or the positive control. The slope k was determined using Microsoft Excel by linear regression of natural logarithm of the residual rate to the incubation time. The intrinsic clearance (in vitro CLint, μL/min/10^6 cells) was calculated from the slope value according to the following equation: […]

The target of the next data set is CYP3A4 (Homo sapiens (Human), UniProt P08684). The data set is described as follows: CYP enzyme inhibition in pooled human liver microsomes (midazolam). It is filed as in vitro ADME. As for the experimental part:
(§1) Typical substrate metabolic responses of five major human CYP subtypes (CYP1A2, CYP2C9, CYP2C19, CYP2D6, CYP3A4) were evaluated using 150-donor pooled human liver microsomes (purchased from Corning, Cat. No.: 452117). The influence of different concentrations of each compound to be tested on metabolic responses of phenacetin (CYP1A2), diclofenac sodium (CYP2C9), S-mephenytoin (CYP2C19), bufuralol hydrochloride (CYP2D6), and midazolam (CYP3A4) was determined by liquid chromatography-mass spectrometry (LC/MS/MS). […] Then 200 μL of acetonitrile solution containing 3% formic acid and 40 nM internal standard verapamil was added and centrifuged at 4000 rpm for 50 min. The mixture was cooled on ice for 20 min and centrifuged at 4000 rpm for 20 min to precipitate the protein. Then 200 μL of supernatant was analyzed by LC-MS/MS. The peak area was calculated from the chromatogram. The residual activity ratio (%) was calculated according to the following equation: Peak area ratio=metabolite peak area/internal standard peak area Residual activity ratio (%)=peak area ratio of compounds-to-be-tested group/peak area ratio of blank group The half inhibitory concentration (IC50) for CYP was calculated by Excel XLfit 5.3.1.3.
In general terms: Liver microsomes are vesicles of endoplasmic reticulum, rich in cytochrome P450 enzymes.

The target of another data set is CYP2C19 (Homo sapiens (Human), UniProt P33261). The experiment in a line: CYP enzyme inhibition in pooled human liver microsomes (S-mephenytoin). Type of data set: in vitro ADME. As for the experimental part:
as §1

The target of another data set is CYP2C9 (Homo sapiens (Human), UniProt P11712). The data set is described as follows: CYP enzyme inhibition in pooled human liver microsomes (diclofenac sodium). It is filed as in vitro ADME. As for the experimental part: as §1
Sequence of CYP2C9 (P11712 whole entry): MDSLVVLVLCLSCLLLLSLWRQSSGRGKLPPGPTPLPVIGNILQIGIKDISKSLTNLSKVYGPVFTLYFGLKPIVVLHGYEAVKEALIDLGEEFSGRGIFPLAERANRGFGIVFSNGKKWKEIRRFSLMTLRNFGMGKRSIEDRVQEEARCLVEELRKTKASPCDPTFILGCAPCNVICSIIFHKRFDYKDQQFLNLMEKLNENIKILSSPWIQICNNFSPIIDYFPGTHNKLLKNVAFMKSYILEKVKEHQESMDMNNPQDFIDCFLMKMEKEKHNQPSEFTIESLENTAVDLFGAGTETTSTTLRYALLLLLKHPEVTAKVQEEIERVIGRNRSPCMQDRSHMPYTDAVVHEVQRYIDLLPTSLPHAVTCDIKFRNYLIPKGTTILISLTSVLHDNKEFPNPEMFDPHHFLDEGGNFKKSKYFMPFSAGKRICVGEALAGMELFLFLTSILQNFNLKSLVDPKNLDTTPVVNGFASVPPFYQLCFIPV
Data set [5] deals with USP1 (Recombinant Human His6-USP1/His6-UAF1 Complex Protein) (Homo sapiens (Human), UniProt O94782). The experiment in a line: In vitro activity assay for USP1 (Ub-CHOP2-Reporter deubiquitination assay). It is filed as biochemical. The note with it: 0.5 h incubation at room temperature, read-out: In vitro inhibitory activity of USP1 IC50. The method, boiled down: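 His6-USP1/His6-UAF1 complex was mixed with compound in 20 mM Tris-HCl pH 8.0, 2 mM CaCl2, 2 mM β-mercaptoethanol and 0.05% CHAPS. Ub-CHOP2 reporter system plus substrate was added, then incubated 0.5 h at room temperature. IC50 came from a four-parameter logistic fit.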
Sequence of USP1 (Recombinant Human His6-USP1/His6-UAF1 Complex Protein) (O94782 whole entry): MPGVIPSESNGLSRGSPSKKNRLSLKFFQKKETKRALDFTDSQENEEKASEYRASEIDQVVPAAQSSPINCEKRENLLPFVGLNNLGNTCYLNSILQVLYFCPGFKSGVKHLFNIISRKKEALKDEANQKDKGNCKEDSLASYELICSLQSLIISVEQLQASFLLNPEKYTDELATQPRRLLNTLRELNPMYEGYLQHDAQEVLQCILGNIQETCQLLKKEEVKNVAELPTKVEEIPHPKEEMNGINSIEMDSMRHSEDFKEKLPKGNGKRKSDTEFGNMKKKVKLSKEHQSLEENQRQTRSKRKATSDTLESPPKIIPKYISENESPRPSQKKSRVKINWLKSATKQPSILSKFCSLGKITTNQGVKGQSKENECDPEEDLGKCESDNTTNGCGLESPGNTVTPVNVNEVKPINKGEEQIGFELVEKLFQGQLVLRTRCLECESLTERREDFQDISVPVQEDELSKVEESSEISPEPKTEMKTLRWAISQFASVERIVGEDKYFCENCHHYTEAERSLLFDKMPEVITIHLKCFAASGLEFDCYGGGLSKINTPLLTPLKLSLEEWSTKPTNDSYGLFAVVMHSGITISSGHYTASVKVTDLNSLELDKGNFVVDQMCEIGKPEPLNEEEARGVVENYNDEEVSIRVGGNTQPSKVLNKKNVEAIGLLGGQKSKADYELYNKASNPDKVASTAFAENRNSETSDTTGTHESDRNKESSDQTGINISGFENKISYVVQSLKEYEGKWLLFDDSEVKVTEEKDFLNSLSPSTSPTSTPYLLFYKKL
Sequence of USP1 (Recombinant Human His6-USP1/His6-UAF1 Complex Protein) (Q8TAF3 whole entry partner): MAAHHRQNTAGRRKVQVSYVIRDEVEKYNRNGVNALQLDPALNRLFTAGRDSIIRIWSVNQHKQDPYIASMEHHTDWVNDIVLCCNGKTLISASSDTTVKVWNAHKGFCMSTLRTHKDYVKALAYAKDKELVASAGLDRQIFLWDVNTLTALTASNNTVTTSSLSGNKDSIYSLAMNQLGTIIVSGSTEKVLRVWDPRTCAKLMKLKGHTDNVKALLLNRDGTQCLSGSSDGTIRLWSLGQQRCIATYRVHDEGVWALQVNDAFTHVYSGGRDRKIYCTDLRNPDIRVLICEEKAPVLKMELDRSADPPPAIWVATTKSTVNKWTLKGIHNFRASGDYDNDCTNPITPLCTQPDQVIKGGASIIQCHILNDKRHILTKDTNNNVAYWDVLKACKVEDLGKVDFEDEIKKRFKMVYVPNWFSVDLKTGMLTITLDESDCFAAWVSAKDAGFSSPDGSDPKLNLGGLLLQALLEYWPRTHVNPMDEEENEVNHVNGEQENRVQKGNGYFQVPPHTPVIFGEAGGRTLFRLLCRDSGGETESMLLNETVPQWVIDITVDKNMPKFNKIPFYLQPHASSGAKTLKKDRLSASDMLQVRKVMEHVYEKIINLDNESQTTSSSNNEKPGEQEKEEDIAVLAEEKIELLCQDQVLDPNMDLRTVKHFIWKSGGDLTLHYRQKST

In another data set the target is CYP2D6 (Homo sapiens (Human), UniProt P10635). The experiment in a line: CYP enzyme inhibition in pooled human liver microsomes (bufuralol hydrochloride). Type of data set: in vitro ADME. Here is the method:
as §1

A further data set addresses CYP1A2 (Homo sapiens (Human), UniProt P05177). The experiment in a line: CYP enzyme inhibition in pooled human liver microsomes (phenacetin). It is filed as in vitro ADME. As for the experimental part:
as §1
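For GI50 in this document: MDA-MB-436 proliferation over 7 days with compound, viability read as ATP luminescence (CellTiter-Glo), inhibition relative to DMSO-only wells, day 0 signal as background, GI50 from four-parameter fit.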

Sequence of PXR (O75469 whole entry): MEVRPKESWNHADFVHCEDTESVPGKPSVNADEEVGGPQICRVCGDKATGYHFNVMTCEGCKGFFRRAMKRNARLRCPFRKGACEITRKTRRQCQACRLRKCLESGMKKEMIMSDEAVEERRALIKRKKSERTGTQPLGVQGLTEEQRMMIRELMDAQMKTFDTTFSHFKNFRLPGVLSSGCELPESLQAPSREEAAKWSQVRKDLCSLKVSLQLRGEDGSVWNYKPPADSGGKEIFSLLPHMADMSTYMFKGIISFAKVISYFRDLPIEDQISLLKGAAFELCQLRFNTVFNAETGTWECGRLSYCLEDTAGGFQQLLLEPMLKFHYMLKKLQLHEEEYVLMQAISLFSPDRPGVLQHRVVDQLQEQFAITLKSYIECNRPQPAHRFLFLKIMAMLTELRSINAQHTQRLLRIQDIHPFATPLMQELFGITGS
Sequence of CYP2D6 (P10635 whole entry): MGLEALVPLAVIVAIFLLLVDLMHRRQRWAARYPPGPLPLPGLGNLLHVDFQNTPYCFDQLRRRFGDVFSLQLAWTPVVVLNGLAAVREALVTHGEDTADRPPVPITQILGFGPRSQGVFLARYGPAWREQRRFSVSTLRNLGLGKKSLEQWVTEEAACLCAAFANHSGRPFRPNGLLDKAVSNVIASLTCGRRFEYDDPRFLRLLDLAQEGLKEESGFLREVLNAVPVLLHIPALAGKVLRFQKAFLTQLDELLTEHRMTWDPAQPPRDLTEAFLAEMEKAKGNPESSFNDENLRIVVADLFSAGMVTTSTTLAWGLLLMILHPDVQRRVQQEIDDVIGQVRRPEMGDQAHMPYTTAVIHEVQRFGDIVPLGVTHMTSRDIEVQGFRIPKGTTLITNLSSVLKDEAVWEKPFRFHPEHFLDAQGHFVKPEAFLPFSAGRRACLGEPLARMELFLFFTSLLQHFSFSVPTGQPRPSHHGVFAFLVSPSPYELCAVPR
Sequence of CYP1A2 (P05177 whole entry): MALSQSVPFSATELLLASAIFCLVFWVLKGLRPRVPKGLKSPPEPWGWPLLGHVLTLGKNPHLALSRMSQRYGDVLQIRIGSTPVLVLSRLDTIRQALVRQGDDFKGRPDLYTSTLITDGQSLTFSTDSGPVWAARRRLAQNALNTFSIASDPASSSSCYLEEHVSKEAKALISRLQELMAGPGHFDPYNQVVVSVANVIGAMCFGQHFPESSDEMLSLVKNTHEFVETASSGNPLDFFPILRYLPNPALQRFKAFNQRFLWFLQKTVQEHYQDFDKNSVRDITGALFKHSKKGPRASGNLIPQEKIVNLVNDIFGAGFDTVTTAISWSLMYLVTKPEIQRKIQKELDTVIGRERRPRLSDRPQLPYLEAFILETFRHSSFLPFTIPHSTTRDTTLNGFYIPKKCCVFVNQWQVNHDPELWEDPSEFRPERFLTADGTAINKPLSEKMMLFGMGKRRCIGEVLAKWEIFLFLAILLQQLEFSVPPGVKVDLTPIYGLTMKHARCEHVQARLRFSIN
Sequence of CYP2C19 (P33261 whole entry): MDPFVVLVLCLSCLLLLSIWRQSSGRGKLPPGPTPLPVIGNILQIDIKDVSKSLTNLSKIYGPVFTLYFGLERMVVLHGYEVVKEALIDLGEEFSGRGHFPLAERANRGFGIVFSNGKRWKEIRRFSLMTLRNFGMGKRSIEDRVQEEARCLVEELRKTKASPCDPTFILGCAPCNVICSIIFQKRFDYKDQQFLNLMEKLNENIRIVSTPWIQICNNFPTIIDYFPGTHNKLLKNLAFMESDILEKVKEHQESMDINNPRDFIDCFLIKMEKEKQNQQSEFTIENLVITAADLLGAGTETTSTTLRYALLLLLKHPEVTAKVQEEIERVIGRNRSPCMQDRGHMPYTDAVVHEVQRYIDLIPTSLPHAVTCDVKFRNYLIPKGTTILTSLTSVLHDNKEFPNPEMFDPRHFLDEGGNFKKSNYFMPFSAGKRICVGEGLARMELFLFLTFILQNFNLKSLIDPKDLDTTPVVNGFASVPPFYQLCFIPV
Sequence of CYP3A4 (P08684 whole entry): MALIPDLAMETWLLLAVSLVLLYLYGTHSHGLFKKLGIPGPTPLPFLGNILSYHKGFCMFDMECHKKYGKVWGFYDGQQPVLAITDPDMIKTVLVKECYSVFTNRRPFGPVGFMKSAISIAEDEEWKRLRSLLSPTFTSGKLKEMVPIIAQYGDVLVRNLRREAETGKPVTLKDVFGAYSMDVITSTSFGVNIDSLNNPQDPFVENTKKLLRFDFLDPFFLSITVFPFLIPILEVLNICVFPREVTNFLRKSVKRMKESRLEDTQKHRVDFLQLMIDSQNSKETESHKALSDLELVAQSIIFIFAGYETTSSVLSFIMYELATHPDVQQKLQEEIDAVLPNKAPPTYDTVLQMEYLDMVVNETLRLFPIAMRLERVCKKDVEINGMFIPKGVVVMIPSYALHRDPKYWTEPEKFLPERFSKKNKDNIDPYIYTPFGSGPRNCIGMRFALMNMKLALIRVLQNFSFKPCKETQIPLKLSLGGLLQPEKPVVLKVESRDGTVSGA

For the molecule `COc1ncnc(C2CC2)c1-c1ncc2c(n1)N(Cc1ccc(-c3nc(C(F)(F)F)cn3C)cc1)C(=O)OC2(C)C` [Compound 50, 7-(4-cyclopropyl-6-methoxypyrimidin-5-yl)-4,4-dimethyl-1-(4-(1-methyl-4-(trifluoromethyl)-1H-imidazol-2-yl)benzyl)-1,4-dihydro-2H-pyrimido[4,5-d][1,3]oxazin-2-one], the “PXR activation (% Positive control)” value at PXR (30 μM) is 32.8 % Positive control. In addition, in data set [1] (IV 2 mg/kg, read-out: Apparent volume of distribution Vss_obs), the Vd is 4.1 L/kg. In data set [1] (IV 2 mg/kg, read-out: Clearance CL_obs), the clearance is 11.4 mL/min/kg. Moreover, the half-life in data set [1] (IV 2 mg/kg, read-out: Half-life period T1/2 (converted)) is 6 h. Besides, in data set [1] (PO 5 mg/kg versus IV, read-out: Bioavailability F), the bioavailability was found to be 47.2%. Besides, in data set [1] (PO 5 mg/kg, read-out: Maximum plasma concentration Cmax), the Cmax turned out to be 235 ng/mL. Besides, the hepatocyte CLint at 1 μM was 4 µL/min/1e6 cells in data set [2] and < 1 µL/min/1e6 cells in data set [4]. This molecule had a Papp A→B at 2 h, 5 μM in [3] (apical to basolateral) of 7.5 ×10⁻⁶ cm/s. The molecule further came in with a Papp B→A at 2 h, 5 μM in data set [3] (basolateral to apical) of 17.3 ×10⁻⁶ cm/s.
Take `COc1ncnc(C2CC2)c1-c1ncc2c(n1)N(Cc1ccc(-n3nc(C(F)(F)F)cc3C)cc1)C(=O)OC2(C)C` [Compound 74, 7-(4-cyclopropyl-6-methoxypyrimidin-5-yl)-4,4-dimethyl-1-(4-(5-methyl-3-(trifluoromethyl)-1H-pyrazol-1-yl)benzyl)-1,4-dihydro-2H-pyrimido[4,5-d][1,3]oxazin-2-one]: the IC50 is > 30 µM against CYP3A4; 10.2 µM on CYP2C19; 4.5 µM at CYP2C9; 0.0173 µM in [5]; > 30 µM on CYP2D6; > 30 µM on CYP1A2. In addition, the “PXR activation (% Positive control)” value on PXR (10 μM) was 13.2 % Positive control. This molecule also registered a GI50 in the data set on MDA-MB-436 cells of 0.0307 µM.
